Assay results from ChEMBL document CHEMBL1201862, “PubChem BioAssay data set” (2004).
Activity calls are given as the source filed them.

How the values were obtained:
[1] = target: Lysine-specific demethylase 4A (Homo sapiens, UniProt O75164); assay: JMJD2A histone demethylase inhibitors, dose response, selectivity assay for GASC-1 inhibitor project, biochemical, DELFIA europium, cherry-picked samples (AID 488840)
[2] = target: T1, Lysine-specific demethylase 4C (Homo sapiens, UniProt Q9H3R0); assay: GASC-1 (JMJD2C) histone demethylase inhibitors, dose response, biochemical, DELFIA europium, cherry-picked samples (AID 488835); format: functional
T1 sequence (Q9H3R0 whole entry): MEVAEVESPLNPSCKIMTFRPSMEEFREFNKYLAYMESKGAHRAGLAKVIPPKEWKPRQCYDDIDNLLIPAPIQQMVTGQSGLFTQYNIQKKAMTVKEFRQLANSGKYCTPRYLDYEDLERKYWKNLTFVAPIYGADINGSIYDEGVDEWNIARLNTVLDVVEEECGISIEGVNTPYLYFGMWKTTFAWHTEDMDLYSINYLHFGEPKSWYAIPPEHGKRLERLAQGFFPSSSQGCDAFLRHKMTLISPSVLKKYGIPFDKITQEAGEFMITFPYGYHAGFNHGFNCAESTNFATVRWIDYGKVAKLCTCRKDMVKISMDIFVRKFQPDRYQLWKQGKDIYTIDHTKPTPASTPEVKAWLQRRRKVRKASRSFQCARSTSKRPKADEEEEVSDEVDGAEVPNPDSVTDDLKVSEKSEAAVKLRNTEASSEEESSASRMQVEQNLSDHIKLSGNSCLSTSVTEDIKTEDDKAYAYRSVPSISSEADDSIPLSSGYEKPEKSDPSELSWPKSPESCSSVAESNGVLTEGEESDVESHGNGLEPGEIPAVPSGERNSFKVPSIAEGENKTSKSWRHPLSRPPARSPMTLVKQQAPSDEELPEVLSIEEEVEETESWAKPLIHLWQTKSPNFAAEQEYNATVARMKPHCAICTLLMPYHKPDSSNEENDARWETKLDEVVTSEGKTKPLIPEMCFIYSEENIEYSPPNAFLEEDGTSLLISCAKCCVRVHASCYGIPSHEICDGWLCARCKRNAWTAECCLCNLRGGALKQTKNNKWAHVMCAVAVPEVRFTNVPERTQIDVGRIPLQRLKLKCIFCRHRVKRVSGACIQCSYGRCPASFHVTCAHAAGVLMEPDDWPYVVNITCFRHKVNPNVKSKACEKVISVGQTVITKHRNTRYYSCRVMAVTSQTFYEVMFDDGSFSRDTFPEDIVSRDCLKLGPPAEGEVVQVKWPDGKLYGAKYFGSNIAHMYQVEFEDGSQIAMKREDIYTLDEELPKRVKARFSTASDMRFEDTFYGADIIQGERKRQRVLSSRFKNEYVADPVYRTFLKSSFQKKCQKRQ

Tumor necrosis factor = Tumor necrosis factor (Homo sapiens, UniProt P01375); assay: TNFa-triggered NF-kB activation inhibitors, SAR follow-up, cell-based, revised (AID 2337); format: functional
Tumor necrosis factor, sequence (P01375 whole entry, the tested form may be a part): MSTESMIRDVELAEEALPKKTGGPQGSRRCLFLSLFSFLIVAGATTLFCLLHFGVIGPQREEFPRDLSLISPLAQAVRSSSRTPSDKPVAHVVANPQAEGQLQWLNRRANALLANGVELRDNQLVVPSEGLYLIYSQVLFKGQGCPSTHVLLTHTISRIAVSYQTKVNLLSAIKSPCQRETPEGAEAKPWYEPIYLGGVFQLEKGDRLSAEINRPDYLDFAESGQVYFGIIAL

[3] = target: Nucleotide-binding oligomerization domain-containing protein 1 (Homo sapiens, UniProt Q9Y239); assay: NOD1 signaling inhibitors, SAR follow-up, revised (AID 2333); format: functional
Nucleotide-binding oligomerization domain-containing protein 1, sequence (Q9Y239 whole entry, the tested form may be a part): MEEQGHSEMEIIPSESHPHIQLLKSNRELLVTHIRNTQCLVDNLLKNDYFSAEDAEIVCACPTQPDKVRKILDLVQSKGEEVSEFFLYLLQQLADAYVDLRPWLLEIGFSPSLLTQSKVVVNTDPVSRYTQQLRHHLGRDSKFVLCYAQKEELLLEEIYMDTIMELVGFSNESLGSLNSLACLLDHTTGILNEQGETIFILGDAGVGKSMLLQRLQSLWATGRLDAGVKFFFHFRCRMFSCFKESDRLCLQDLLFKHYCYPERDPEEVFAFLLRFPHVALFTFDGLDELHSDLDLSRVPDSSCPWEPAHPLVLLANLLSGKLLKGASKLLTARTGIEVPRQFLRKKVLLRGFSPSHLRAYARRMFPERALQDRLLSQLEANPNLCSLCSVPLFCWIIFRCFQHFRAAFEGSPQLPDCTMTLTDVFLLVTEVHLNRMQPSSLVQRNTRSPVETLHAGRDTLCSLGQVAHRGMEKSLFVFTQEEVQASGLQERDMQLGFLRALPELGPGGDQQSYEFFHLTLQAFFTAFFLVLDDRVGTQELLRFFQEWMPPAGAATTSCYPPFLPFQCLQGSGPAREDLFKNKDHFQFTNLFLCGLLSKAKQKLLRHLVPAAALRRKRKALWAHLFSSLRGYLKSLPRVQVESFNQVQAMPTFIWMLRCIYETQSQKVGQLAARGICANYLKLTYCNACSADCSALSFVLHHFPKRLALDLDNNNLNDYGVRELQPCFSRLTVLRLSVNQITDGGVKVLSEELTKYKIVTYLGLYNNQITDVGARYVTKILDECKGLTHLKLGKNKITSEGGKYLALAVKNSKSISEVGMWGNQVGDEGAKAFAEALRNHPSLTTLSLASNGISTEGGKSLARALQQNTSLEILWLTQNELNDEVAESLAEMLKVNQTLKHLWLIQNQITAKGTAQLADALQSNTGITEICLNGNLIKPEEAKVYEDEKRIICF

[4] = target: Nucleotide-binding oligomerization domain-containing protein 2 (Homo sapiens, UniProt Q9HC29); assay: PubChem AID 2334; format: functional
Nucleotide-binding oligomerization domain-containing protein 2, sequence (Q9HC29 whole entry, the tested form may be a part): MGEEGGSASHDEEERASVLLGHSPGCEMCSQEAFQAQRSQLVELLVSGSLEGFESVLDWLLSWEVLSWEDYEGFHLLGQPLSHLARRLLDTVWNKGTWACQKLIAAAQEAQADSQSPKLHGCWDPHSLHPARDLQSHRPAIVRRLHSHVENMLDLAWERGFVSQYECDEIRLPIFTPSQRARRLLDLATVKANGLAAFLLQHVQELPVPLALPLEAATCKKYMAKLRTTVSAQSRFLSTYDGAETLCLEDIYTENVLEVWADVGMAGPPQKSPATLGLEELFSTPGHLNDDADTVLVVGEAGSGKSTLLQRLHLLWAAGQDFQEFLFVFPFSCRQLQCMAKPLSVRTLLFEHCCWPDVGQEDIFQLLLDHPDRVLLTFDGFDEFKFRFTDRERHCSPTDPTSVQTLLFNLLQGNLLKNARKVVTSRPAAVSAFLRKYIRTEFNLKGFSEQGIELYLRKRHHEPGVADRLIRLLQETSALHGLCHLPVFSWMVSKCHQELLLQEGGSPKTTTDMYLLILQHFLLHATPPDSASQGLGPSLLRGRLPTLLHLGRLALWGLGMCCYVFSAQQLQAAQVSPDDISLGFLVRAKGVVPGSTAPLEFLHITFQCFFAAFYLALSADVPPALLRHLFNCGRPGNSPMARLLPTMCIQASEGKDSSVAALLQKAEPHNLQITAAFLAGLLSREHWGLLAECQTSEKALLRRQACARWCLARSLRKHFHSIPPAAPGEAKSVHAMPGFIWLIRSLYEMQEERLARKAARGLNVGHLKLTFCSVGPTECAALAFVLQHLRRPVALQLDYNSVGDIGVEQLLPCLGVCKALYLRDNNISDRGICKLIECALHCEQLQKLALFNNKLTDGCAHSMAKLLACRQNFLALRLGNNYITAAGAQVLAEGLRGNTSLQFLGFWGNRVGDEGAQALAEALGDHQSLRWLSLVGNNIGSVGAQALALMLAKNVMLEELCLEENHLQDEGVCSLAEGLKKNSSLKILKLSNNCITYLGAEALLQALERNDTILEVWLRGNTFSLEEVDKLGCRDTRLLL

HEK293 = assay: cells; conditions: Homo sapiens;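 also: cells exposed to compound for 14 hours overnight before viability readout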
CAAX prenyl protease 2 = CAAX prenyl protease 2 (Saccharomyces cerevisiae S288c, UniProt Q03530); format: biochemical
CAAX prenyl protease 2, sequence (Q03530 whole entry): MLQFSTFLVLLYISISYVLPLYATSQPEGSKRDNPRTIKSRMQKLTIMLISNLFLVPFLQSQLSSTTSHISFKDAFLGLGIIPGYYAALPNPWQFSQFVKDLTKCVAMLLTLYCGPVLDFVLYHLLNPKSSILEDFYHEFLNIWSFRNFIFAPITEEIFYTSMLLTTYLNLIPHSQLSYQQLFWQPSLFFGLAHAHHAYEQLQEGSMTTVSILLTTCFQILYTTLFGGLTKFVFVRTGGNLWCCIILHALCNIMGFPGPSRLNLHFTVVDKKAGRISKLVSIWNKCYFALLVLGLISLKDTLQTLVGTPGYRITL

CAAX prenyl protease 1 = CAAX prenyl protease 1 (Saccharomyces cerevisiae S288c, UniProt P47154); assay: Ste24 protease inhibitors, dose response, biochemical, S. cerevisiae, plate reader, cherry-pick (AID 488815)
CAAX prenyl protease 1, sequence (P47154 whole entry): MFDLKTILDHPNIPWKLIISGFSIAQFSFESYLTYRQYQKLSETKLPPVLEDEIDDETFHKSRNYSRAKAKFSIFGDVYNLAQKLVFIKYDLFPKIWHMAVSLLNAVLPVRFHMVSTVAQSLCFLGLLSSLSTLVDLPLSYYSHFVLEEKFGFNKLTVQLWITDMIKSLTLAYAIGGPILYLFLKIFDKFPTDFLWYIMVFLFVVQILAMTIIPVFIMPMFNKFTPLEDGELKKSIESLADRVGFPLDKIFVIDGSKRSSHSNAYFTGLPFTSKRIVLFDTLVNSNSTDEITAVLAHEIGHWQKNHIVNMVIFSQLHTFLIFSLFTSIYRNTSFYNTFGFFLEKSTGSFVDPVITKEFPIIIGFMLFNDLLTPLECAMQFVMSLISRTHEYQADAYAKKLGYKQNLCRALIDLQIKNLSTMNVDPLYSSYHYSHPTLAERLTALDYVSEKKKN

[5] = target: T2, Dual specificity protein phosphatase 3 (Homo sapiens, UniProt P51452); assay: VHR1 phosphatase inhibitors, primary screen, biochemical, absorbance, uHTS (AID 1654)
T2 sequence (P51452 whole entry): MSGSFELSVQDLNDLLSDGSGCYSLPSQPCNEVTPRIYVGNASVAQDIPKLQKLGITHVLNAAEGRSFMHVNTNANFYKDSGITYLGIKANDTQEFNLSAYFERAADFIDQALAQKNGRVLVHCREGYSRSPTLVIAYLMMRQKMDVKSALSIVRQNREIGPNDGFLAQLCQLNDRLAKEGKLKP

[6] = target: T3, Tyrosine-protein phosphatase non-receptor type 7 (Homo sapiens, UniProt P35236); assay: inhibitors of human HePTP phosphatase, […], biochemical, absorbance, leukemia target (AID 521); format: functional
T3 sequence (P35236 whole entry): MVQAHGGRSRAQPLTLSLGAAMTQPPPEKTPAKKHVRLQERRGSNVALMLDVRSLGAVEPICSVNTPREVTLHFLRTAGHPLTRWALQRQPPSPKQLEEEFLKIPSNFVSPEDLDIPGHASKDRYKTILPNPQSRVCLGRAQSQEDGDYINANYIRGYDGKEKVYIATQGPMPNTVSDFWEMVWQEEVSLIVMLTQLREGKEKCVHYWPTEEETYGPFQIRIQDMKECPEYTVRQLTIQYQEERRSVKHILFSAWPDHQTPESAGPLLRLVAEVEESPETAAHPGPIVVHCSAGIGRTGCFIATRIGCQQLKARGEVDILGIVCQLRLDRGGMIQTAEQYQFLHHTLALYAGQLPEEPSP

BJ [7] = assay: cytotoxicity toward BJ-TERT fibroblasts, dose response, cell-based, RAS-independent, luminescence (AID 1933); format: functional; conditions: Homo sapiens
[8] = target: T3, Tyrosine-protein phosphatase non-receptor type 7; format: functional
BJ [9] = assay: cells; format: functional, cell-based; conditions: Homo sapiens
[10] = target: T2, Dual specificity protein phosphatase 3; assay: VHR1 phosphatase inhibitors, biochemical (AID 1878)
BJ [11] = assay: cytotoxicity toward BJ-TERT-LT-ST fibroblasts, dose response, cell-based, RAS-independent, luminescence (AID 1935); format: functional; conditions: Homo sapiens;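 also: BJ fibroblasts immortalized with TERT plus LT and ST oncogenes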
[12] = target: T4, Dual specificity protein phosphatase 6 (Rattus norvegicus, UniProt Q64346); assay: MKP-3 phosphatase inhibitors, primary screen, biochemical, rat enzyme, in vitro (AID 425)
T4 sequence (Q64346 whole entry): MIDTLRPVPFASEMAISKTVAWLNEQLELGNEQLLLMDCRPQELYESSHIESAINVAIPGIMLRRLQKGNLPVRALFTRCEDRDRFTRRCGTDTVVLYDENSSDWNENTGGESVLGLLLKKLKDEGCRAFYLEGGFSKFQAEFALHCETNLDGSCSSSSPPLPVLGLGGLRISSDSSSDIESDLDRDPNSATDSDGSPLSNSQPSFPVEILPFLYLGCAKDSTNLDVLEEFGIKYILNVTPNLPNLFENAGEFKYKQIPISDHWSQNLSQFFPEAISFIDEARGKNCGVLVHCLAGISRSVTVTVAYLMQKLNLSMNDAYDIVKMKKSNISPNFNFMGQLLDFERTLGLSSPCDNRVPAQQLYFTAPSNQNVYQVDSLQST

[13] = cytotoxicity toward DRD oncogenic fibroblasts, dose response, cell-based, non-viral oncogenic, luminescence (AID 1934); format: functional; conditions: Homo sapiens
[14] = target: T5, Tyrosine-protein phosphatase non-receptor type 22 (Homo sapiens, UniProt Q9Y2R2); format: functional
T5 sequence (Q9Y2R2 whole entry): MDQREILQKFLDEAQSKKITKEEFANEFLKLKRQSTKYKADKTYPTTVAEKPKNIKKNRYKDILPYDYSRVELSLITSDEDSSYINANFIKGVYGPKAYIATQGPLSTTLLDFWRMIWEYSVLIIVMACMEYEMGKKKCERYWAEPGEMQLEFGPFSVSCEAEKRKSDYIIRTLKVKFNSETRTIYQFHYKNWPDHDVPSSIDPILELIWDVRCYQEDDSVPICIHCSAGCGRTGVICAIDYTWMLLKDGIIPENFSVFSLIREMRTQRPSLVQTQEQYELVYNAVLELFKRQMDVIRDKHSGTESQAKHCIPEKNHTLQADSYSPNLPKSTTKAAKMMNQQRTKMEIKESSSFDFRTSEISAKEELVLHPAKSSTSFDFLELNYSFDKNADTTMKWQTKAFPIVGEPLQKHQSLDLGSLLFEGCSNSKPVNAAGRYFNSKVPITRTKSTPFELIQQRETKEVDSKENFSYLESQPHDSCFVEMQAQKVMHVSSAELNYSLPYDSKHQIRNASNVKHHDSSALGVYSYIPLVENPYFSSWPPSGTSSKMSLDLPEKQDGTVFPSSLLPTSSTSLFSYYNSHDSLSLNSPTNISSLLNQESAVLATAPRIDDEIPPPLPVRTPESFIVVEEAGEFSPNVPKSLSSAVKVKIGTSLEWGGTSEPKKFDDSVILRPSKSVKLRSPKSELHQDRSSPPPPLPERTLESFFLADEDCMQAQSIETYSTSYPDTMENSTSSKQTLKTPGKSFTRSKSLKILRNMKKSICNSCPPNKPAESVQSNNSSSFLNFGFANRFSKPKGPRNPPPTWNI

[15] = target: T5, Tyrosine-protein phosphatase non-receptor type 22; format: functional; remark: listed apart in the source
[16] = target: Heat shock protein HSP 90-alpha (Homo sapiens, UniProt P07900); format: functional, organism-based
BJ [17] = assay: cytotoxicity toward Ras-transformed BJeLR fibroblasts, dose response, cell-based, alamar blue fluorescence, cherrypicked samples (AID 2631); format: functional; conditions: Homo sapiens;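 also: confirmatory dose-response assay in RAS-dependent BJ fibroblasts engineered with TERT, LT and ST, with cytotoxicity read by fluorescence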

Lysine-specific demethylase 4A, sequence (O75164 whole entry): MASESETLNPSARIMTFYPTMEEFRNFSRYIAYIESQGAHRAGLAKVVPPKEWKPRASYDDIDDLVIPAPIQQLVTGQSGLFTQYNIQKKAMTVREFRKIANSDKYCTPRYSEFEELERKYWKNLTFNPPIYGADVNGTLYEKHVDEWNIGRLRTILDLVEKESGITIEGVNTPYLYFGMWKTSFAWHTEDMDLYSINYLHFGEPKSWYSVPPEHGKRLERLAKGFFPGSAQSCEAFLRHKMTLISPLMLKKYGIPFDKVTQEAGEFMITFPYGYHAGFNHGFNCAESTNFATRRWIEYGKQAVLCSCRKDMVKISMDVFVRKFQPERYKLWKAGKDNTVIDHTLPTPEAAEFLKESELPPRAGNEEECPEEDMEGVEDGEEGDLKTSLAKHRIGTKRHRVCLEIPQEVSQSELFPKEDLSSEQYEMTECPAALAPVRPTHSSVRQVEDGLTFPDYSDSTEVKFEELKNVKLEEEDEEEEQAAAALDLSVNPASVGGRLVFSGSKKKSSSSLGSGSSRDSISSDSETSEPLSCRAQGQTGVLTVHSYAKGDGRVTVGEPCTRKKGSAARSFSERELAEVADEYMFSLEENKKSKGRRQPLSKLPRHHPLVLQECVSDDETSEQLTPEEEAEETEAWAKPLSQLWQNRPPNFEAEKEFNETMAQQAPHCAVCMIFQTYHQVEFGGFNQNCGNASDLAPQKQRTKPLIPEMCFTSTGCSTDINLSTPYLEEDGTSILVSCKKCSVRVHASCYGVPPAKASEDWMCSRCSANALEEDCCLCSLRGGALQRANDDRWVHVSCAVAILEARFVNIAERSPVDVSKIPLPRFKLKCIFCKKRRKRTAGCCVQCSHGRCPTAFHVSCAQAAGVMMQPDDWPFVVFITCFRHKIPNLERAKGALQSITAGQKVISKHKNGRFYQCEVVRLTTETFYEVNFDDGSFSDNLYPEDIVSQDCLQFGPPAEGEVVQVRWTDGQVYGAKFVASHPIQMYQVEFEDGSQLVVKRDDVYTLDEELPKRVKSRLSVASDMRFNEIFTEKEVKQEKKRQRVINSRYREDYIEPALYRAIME

Question: What does the source list for `CCCCOc1ccc(CC2C(=O)N(C)C(=O)N(C)C2=O)cc1`?
Answer: AC50 [1]: 12.5 µM (active); AC50 [2]: 1.76 µM (active)

Question: Which IC50 (Tumor necrosis factor) does the source give for `Cc1cc(C(=O)NC2CCCc3c2cnn3-c2ccccc2F)[nH]n1` (stereo unspecified) here?
Answer: > 20 µM (inactive)

Question: And the IC50 [3]?
Answer: > 20 µM (inactive)

Question: And the IC50 [4]?
Answer: > 20 µM (inactive)

Question: And the IC50 (HEK293)?
Answer: > 20 µM (inactive)

Question: For `COc1ccc(N2CCN(C(=O)c3cc(-c4cccs4)nc4ccccc34)CC2)cc1`, which AC50 (CAAX prenyl protease 2) is on record?
Answer: 4.06 µM (active)

Question: What about the AC50 (CAAX prenyl protease 1) of the same molecule?
Answer: 47.6 µM (active)

Question: For `O=C(c1cccs1)c1no[n+]([O-])c1C(=O)c1cccs1`, which IC50 [5] is on record?
Answer: < 980 nM (inactive)

Question: And the IC50 [6]?
Answer: > 100 µM (not active)

Question: What about the EC50 (BJ [7]) of the same molecule?
Answer: 803 nM (active)

Question: And the IC50 [8]?
Answer: 4.5 µM (active)

Question: What about the EC50 (BJ [9]) of the same molecule?
Answer: 3.58 µM (active)

Question: And the IC50 [10]?
Answer: 7.48 µM (active)

Question: And the EC50 (BJ [11])?
Answer: 7.28 µM (inconclusive)

Question: What about the IC50 [12] of the same molecule?
Answer: 141 µM (not active)

Question: What about the EC50 [13] of the same molecule?
Answer: 2.78 µM (inconclusive)

Question: And the IC50 [14]?
Answer: 2.39 µM (active)

Question: What about the IC50 [15] of the same molecule?
Answer: < 1.24 µM (active)

Question: What about the AC50 [16] of the same molecule?
Answer: 3.5 µM (active)

Question: And the EC50 (BJ [17])?
Answer: 3.9 µM (inconclusive)
